In patent US12559784B2 (priority 2023, dated 2026):
Several values for one entry are separate records, joined by “and”; a condition that tells them apart may be missing. Identical values can stand only once. Like-named read-outs stand apart in the source and are kept apart here.

What was measured:
alkaline phosphatase [1] = assay type: biochemical
Experimental: New stocks were made the of the 1:100 alkaline phosphatase reaction reagents.
The conditions included: 1:100 dilution of alkaline phosphatase reaction reagent with two solvents (buffered saline and ethanol), dosing in 0.5 mL microcentrifuge tubes with 20 μL of chemical added to 180 μL of reaction reagent, and incubating with p-Nitrophenyl phosphate disodium salt (PNPP) substrate for 1-hour.

alkaline phosphatase [2] = settings: 30 μL chemical in 300 μL reagent 1:100, 4 hours room temperature, 3 mL PNPP 1 hour
Experimental: We changed the test chemical dosage to 30 μL and the alkaline phosphatase reaction reagent to 300 μL, but kept the incubation to 4 hours at room temperature.
PBS: Take 4 mL of AP (1:10) stock solution, add to 36 mL PBS. Vortex mix and then invert to mix 10 times • ii. […] Vortex mix and then invert to mix 10 times • b. PBS (lx) • c. […] Prepare 4 mL glass vials for dosing • a. Four sets • i. R1+ (PBS-AP) • ii. R1− (PBS) • iii. […] Prepare 96-well plates for PNPP reading (3 wells for each test chemical) Procedure • 1. Aliquot 300 μL of each reaction reagent to 4 mL glass vials. • 2. Add 30 μL of the test sample to each 4 mL glass vial. • 3. Incubate at room temperature for 4 hours. • 4. Aliquot 3 mL of PNPP to each 4 mL glass vial, let sit for 1 hr. • a. Aliquot 750 μL into the 4 mL glass vial to stop the reaction. • 5.

alkaline phosphatase [3] = assay type: biochemical; settings: PBS; 18 hours room temperature, PNPP 1 hour
Description: Our next study compared different dilutions of the original alkaline phosphatase source (1:10 [Activity: 1,000 units] and 1:100 [100 units]) and two sources of alkaline phosphatase, both purchased from Sigma Aldrich (St. Louis, MO). […] The five conditions for this study included original alkaline phosphatase (1:1), original alkaline phosphatase (1:10), original alkaline phosphatase (1:100), new alkaline phosphatase (1:1), and the blanks (phosphate buffered saline (PBS)). […] The two controls contained ink to determine if there would be any background effect.
Preparation • 1. Alkaline phosphatase reaction reagent • a. Original AP • i. Add 1 mL PBS into AP vial, pipette re-pipette 10 times, then invert with cap on, to mix well. Take this 1 mL and add to 50 mL conical tube filled with 40 mL PBS. Invert to mix 10 times, vortex mix, let sit 2 minutes, invert to mix again 10 times • ii. Prepare 2 more 50 mL conical tubes • 1. 1:10 • a. […] 1:100 • a. Take 4 mL of solution made above, add to 36 mL PBS. […] New AP • i. Add 400 mg into a 50 mL conical tube filled with 40 mL PBS. Invert to mix 10 times, vortex mix, let sit 2 minutes, invert to mix 10 more times. Check to make sure all suspended. If not, vortex mix and invert until fully suspended. • 2. Prepare 24-well plates • 3. […] Aliquot with 200 μL PNPP Conditions • 1. Old AP • 2. Old AP (1:10) • 3. Old AP (1:100) • 4. New AP • 5. Blank (PBS only) Procedure • 1. 24-well plates • a. Add 1 mL (using P1000, blue tips) of the prepared PBS-AP to the plate (for each condition) • b. Add 100 μL of the test material to the well, mix with the same pipette tip, dispose and repeat for the rest of the test materials • c. Wrap the plate in saran wrap and place into the container • d. […] To the prepared 96-well plate with 200 μL PNPP or PBS, add 20 μL from the 24-well plate • 3. Incubate for 1 hour • 4.

skin = settings: cited from earlier work; for in vivo GHS: skin, chemical lists of the experiments
porcine skin = tested on: porcine skin
Experimental: Our initial studies involved using fresh and frozen porcine skin “buttons”. These buttons were punched out of porcine skin (Spear Products, Cooopersburg, PA) using a […] biopsy punch tool. Three different kinds of skin buttons were prepared from fresh porcine skin, frozen porcine skin, and frozen porcine skin with the fatty layer removed. […] The next day, the tubes were taken out and vortexed and 500 μL of the solution was aliquoted into cuvettes to read at three different optical density wavelengths (OD190, OD290, OD300) to evaluate the best response.
Skin Preparation • 1. Thaw 2 pieces of frozen porcine skin • 2. Punch out buttons: 24 buttons in each tube filled with 40 mL PB S-Azide 96-well plate Preparation • 1. Plate layout for dosing:
Procedure • 1. Dose each tissue with 140 μL of test chemical • 2. […] Take out of incubator and vortex pulse 3× • 2. Aliquot 500 μL to cuvette and read results at OD190, OD290, and OD300
There were three readings done at an optical density of 190, 290, and 300 nm to evaluate the best response. […] To address the variable exposure conditions, our next studies involved placing a larger porcine skin section into a holder that exposes only the epidermis side with no potential for test chemical exposure from the backside or through the sides.

phosphatase = assay type: biochemical, porcine; settings: for percent of phosphatase measured (optical density compared to the naïve condition), average: average of two readings; for percent of phosphatase measured (optical density compared to the naïve condition): single readings
Experimental: Our next studies involved applying the test substance (500 μL) directly to the epidermis side of previously frozen porcine skin (Spear Products, Coopersburg, PA) that is placed in a holder that only exposes the epidermis side for 30 minutes, adding phosphate buffered saline (PBS) with added sodium azide (metabolic inhibitor that ensure no viable tissue), then aliquoting into cuvettes to read at an optical density of 300 nm. […] So, at the end of the initial studies described above, almost out of frustration, we tried to probe for released phosphatase activity using p-Nitrophenyl phosphate disodium salt (PNPP; Sigma Aldrich, St. Louis, MO) substrate solution to detect any presence of phosphatase.
Preparation • 1. Thaw 2 pieces of frozen porcine skin • a. Punch out as many skin discs and mount in holders • 2. Label cuvettes (3 for each chemical) Procedure • 1. Add 500 μL of test chemical to holder; incubate at room temperate for 30 minutes • 2. After 30 minutes, add 2 mL of PBS-Azide to both the holder containing the test chemical; forcefully pipette and re-pipette 10 times • 3. From the holder, aliquot 400 μL into 3 cuvettes; forcefully pipette and re-pipette 3 times before dispensing into cuvettes Reading Results • 1. Measure at OD300 for all cuvettes
Skin corrosion by GHS Category 1 dermal corrosive chemicals results in the disintegration of the epidermis into the dermis.

alkaline phosphatase [4] = test: Alkaline phosphatase experiment, third week: with and without discs; assay type: biochemical
Description: Our next study focused on an in vitro method of detecting the potential of dermal corrosives to inhibit nonspecific phosphatases that may be released from the skin. We decided to test pure […] instead of relying on endogenous skin phosphatase. Alkaline phosphatase (Sigma Aldrich, St. Louis, MO) was purchased and suspended to make the reaction reagent (10,000 units). […] We note that the ratio used was 0.1 g/ml or 10% chemical—which is far in excess of any pharmaceutical applications. We further note that pharmaceutical enzyme inhibition tests, studies an use involve highly specific active site binding and these assays are conducted at ratios of micrograms-femtograms per ml. These studies are done at these ranges because these are the realistic concentrations for drug applications and therapeutics. […] So when a 50 Kg human consumes the tables, the tissues will be exposed at a 5 mg/50 kg=0.1 mg/kg=0.0000001 g/ml.
Next two quantitative methods were evaluated: 1) using the discs parts from our OptiSafe™ test method and 2) directly into the 24-well plate.
Preparation • 1. Alkaline phosphatase reaction reagent • a. Take 1 vial of AP, add 1 mL of PBS, mix by pipette/re-pipette 10 times • b. To a 50 mL conical tube, add 1 mL of the AP solution prepared above and 40 mL of PBS • 2. Prepare two 24-well plates (1 with discs, 1 without discs) • 3. […] Aliquot 200 μL PNPP and PBS Procedure • 1. Plate 1 (No Discs) • a. Add 1.25 mL from the prepared PBS-AP conical tube to each well (11 wells) • b. Add 100 μL of the test material to the well, mix with the same pipette tip, dispose and repeat for the rest of the test materials • c. Wrap the plate in saran wrap and place into the container • 2. Plate 2 (Discs) • a. Configure the 11 discs in the plate so the plate cover is stable • b. Add 1.25 mL from the prepared PBS-AP conical tube to each well (11 wells) • c. Add 100 μL of the test material to the center of the disc and repeat for the rest of the test materials • d. Put the plate cover on and place into the container • 3. […] Incubate for 1 hour Reading Results • 1. Measure at OD405

alkaline phosphatase [5] = assay type: biochemical; settings: 3-hour exposure; 10 μL into 90 μL
[6] = frozen porcine skin with fat layer removed, R 1 and 2
[7] = fresh porcine skin, 140 μL test chemical, R 1 and 2, >3A = outside readable range

SMILES	A2 - Results AVG (alkaline phosphatase [1])	A2 - Results R1 (alkaline phosphatase [1])	A2 - Results R3 (alkaline phosphatase [1])	in vivo GHS (skin)	OD290 (porcine skin; fresh porcine skin, R 1 and 2)	OD300 (porcine skin; fresh porcine skin, R 1 and 2)	OD190 (porcine skin; [6])	OD290 (porcine skin; [6])	OD290 (porcine skin; frozen porcine skin, R 1 and 2)	OD300 (porcine skin; frozen porcine skin, R 1 and 2)	percent of phosphatase measured (optical density compared to the naïve condition), average (phosphatase) [%]	percent of phosphatase measured (optical density compared to the naïve condition) (phosphatase)	other results
Cc1ccc(C(C)C)cc1O	2.597	2.462	2.772	Cat. 1B/1C									OD405 readings, buffered saline alkaline phosphatase reaction reagent, glass vials (FIG. 11B) (alkaline phosphatase [2]): 1.990 and 1.926; OD405 readings, ethanol alkaline phosphatase reaction reagent, glass vials (FIG. 11D) (alkaline phosphatase [2]): 3.444 and 3.465 and 3.398; OD405 readings, original alkaline phosphatase 1:100 (FIG. 6D) (alkaline phosphatase [3]): 0.991 and 0.974 and 1.167
CC(C)(O)CCc1ccccc1 [2-Methyl-4-phenyl-2-butanol]					0.339 and 0.426	0.272 and 0.371	0.215 and 0.322	0.079 and 0.094	0.496 and 0.637	0.342 and 0.497	99.3	98.6% and 100.0%	Corrosive (skin; Yes/No): No; OD300 (porcine skin; [6]): 0.026 and 0.052; OD190 (porcine skin; frozen porcine skin, R 1 and 2): 0.338 and 0.362
CCCCCCCC(=O)O [Octanoic Acid]	2.342	2.12	2.129										OD405 readings, buffered saline alkaline phosphatase reaction reagent, glass vials (FIG. 11B) (alkaline phosphatase [2]): 1.427 and 1.415 and 1.416; OD405 readings, ethanol alkaline phosphatase reaction reagent, glass vials (FIG. 11D) (alkaline phosphatase [2]): 3.283 and 3.408 and 3.220; OD405 readings, original alkaline phosphatase 1:100 (FIG. 6D) (alkaline phosphatase [3]): 3.462 and 3.491 and 3.333
NCCO [Ethanolamine]					0.848 and 1.169	0.711 and 1.044	0.761 and 0.800	0.168 and 0.093	0.708 and 0.767	0.524 and 0.598	19.9	20.1% and 19.6%	Corrosive (skin; rabbit, in vivo): Yes; OD190 (porcine skin; [7]): >3A; raw optical density reading (PNPP), with discs (FIG. 3A) (alkaline phosphatase [4]): 0.170 and 0.166 and 0.172; raw optical density reading (PNPP), without discs (FIG. 3B) (alkaline phosphatase [4]): 0.174 and 0.185 and 0.175
C=CCCC=C [1,5-Hexadiene]	2.717	2.692	2.693										OD405 reading, ethanol solvent, 10 μL dose, 1-hour PNPP (FIG. 7B) (alkaline phosphatase [5]): 2.947; OD405 reading, ethanol solvent, 10 μL dose, 30-minute PNPP (FIG. 7A) (alkaline phosphatase [5]): 1.702
CCCCCCCCC=O [Nonyl aldehyde]	2.227	2.496	2.117	Cat. 2									OD405 reading, ethanol solvent, 10 μL dose, 1-hour PNPP (FIG. 7B) (alkaline phosphatase [5]): 3.078; OD405 reading, ethanol solvent, 10 μL dose, 30-minute PNPP (FIG. 7A) (alkaline phosphatase [5]): 1.589
BrCCc1ccccc1 [(2-Bromoethyl)benzene]					0.125 and 0.133	0.080 and 0.094	0.131 and 0.144	0.071	0.279 and 0.254	0.137 and 0.128	100.0	100.0%	OD300 (porcine skin; [6]): 0.030 and 0.034
CCCSSCCC [di-n-Propyl disulfide]	2.472	2.649	2.368	Cat. 2	0.139 and 0.137	0.105 and 0.096	0.443 and 0.405	0.082 and 0.063	0.294 and 0.240	0.161 and 0.119	69.9	68.1% and 71.6%	Corrosive (skin; Yes/No): No; OD190 (porcine skin; [7]): 0.419 and 0.400; OD300 (porcine skin; [6]): 0.031 and 0.018; OD190 (porcine skin; frozen porcine skin, R 1 and 2): 0.314 and 0.396
CC(=O)O [Acetic acid]	0.850	0.996	0.829								18.9	19.1% and 18.6%	A1 - Results AVG (alkaline phosphatase [1]): 0.096; A1 - Results R1 (alkaline phosphatase [1]): 0.096; A1 - Results R3 (alkaline phosphatase [1]): 0.096; Corrosive (skin; rabbit, in vivo): Yes; OD190 (porcine skin; pig): >3A; raw optical density reading (PNPP), with discs (FIG. 3A) (alkaline phosphatase [4]; 405 nm, 100 μL chemical, 1.25 mL reaction reagent (10,000 units), 18 hours 37° C., PNPP 1 hour): 0.106 and 0.102 and 0.103; raw optical density reading (PNPP), without discs (FIG. 3B) (alkaline phosphatase [4]; 405 nm, 100 μL chemical, 1.25 mL reaction reagent, 18 hours 37° C., PNPP 1 hour): 0.104 and 0.129 and 0.101
CC(C=O)Cc1ccc(C(C)C)cc1 (centres unmarked) [Cyclamen aldehyde]	2.777	2.736	2.845	Cat. 2	0.290						100.0	100.0%	Corrosive (skin; Yes/No): No
OCCOCCOCCO [Triethylene glycol]											28.9	29.5% and 28.2%	Corrosive (skin; rabbit, in vivo): No
